Test results: ChEMBL document CHEMBL1158604, “New pyrazolo[1,5a]pyrimidines as orally active inhibitors of Lck” (Bioorg Med Chem Lett, 2010)
The source made the active and inactive calls. The rule behind the calls is not given here.

Tests used:
[1] = target: Tyrosine-protein kinase HCK (Homo sapiens, UniProt P08631)
[2] = target: Proto-oncogene tyrosine-protein kinase Src (Homo sapiens, UniProt P12931)
[3] = target: Vascular endothelial growth factor receptor 2 (Homo sapiens, UniProt P35968)
[4] = target: T1, Tyrosine-protein kinase Lck (Homo sapiens, UniProt P06239)
Liver microsomes = conditions: rat
Description: Clearance in rat liver microsomes

in vitro = conditions: rat, liver microsomes
Description: Half life in rat liver microsomes

[5] = Clearance in rat; format: ADME, organism-based; conditions: in vivo
[6] = target: Proto-oncogene tyrosine-protein kinase receptor Ret (Homo sapiens, UniProt P07949); assay: Inhibition of Ret
[7] = Half life in rat; format: ADME, organism-based; conditions: in vivo
[8] = Volume of distribution in rat; format: ADME, organism-based; conditions: in vivo
Mus musculus [9] = assay: Immunosuppressive activity in BALB/c mouse assessed as CD3 antibody-induced IL2 production at 30 mg/kg, po relative to control; format: functional
[10] = target: RAC-alpha serine/threonine-protein kinase (Homo sapiens, UniProt P31749); assay: Inhibition of PKBalpha
[11] = Inhibition of cABL T315 mutant
[12] = target: Receptor tyrosine-protein kinase erbB-2 (Homo sapiens, UniProt P04626); assay: Inhibition of Her2
[13] = target: Hepatocyte growth factor receptor (Homo sapiens, UniProt P08581); assay: Inhibition of cMet
[14] = target: Mast/stem cell growth factor receptor Kit (Homo sapiens, UniProt P10721); assay: Inhibition of cKIt
Mus musculus [15] = assay: Immunosuppressive activity in BALB/c mouse assessed as concanavalin A-induced T cell activation at 100 mg/kg, po relative to control; format: functional, organism-based; parameters: dose 100 mg/kg
[16] = target: Fibroblast growth factor receptor 3 (Homo sapiens, UniProt P22607); assay: Inhibition of FGFR3K
[17] = target: T1, Tyrosine-protein kinase Lck; assay: Inhibition of LCK in human Jurkat cells assessed as ZAP70 phosphorylation by FACS assay; format: cell-based
[18] = Oral bioavailability in rat; format: ADME, organism-based; conditions: in vivo
[19] = target: Tyrosine-protein kinase ABL1 (Homo sapiens, UniProt P00519); assay: Inhibition of ABL
Mus musculus [20] = assay: Immunosuppressive activity in BALB/c mouse assessed as CD3 antibody-induced IL2 production at 10 mg/kg, po relative to control; format: functional
[21] = target: Tyrosine-protein kinase ZAP-70 (Homo sapiens, UniProt P43403); assay: Inhibition of ZAP70
[22] = target: Tyrosine-protein kinase JAK3 (Homo sapiens, UniProt P52333); assay: Inhibition of JAK3
[23] = target: ALK tyrosine kinase receptor (Homo sapiens, UniProt Q9UM73); assay: Inhibition of Alk
[24] = target: Platelet-derived growth factor receptor alpha (Homo sapiens, UniProt P16234); assay: Inhibition of PDGFRalpha
[25] = target: Insulin-like growth factor 1 receptor (Homo sapiens, UniProt P08069); assay: Inhibition of IGF1R
Mus musculus [26] = assay: Immunosuppressive activity in BALB/c mouse assessed as CD3 antibody-induced IL2 production at 100 mg/kg, po relative to control; format: functional
Insulin receptor = Insulin receptor (Homo sapiens, UniProt P06213); assay: Inhibition of INSR
[27] = target: Tyrosine-protein kinase JAK1 (Homo sapiens, UniProt P23458); assay: Inhibition of JAK1
[28] = target: Cyclin-dependent kinase 2/cyclin A (Homo sapiens, UniProt P24941); assay: Inhibition of CDK2/cyclinA; format: protein-complex assay
Angiopoietin-1 receptor = Angiopoietin-1 receptor (Homo sapiens, UniProt Q02763); assay: Inhibition of tie2
[29] = target: Tyrosine-protein kinase JAK2 (Homo sapiens, UniProt O60674); assay: Inhibition of JAK2

## CN1CCN(c2ccc(-c3cnn4c(N)c(-c5ccc(O)cc5)cnc34)cc2)CC1
[1]
  IC50: 85 nM
[2]
  IC50: 396 nM
[3]
  IC50: 1300 nM
[4]
  IC50: 36 nM

## CN1CCN(c2cccc(-c3cnn4c(N)c(-c5ccc(NC(=O)N(C)C6CCCCC6)cc5)cnc34)c2)CC1
[1]
  IC50: 110 nM
[2]
  IC50: 554 nM
[3]
  IC50: 6000 nM

## COCCN1CCN(c2ccc(-c3cnn4c(N)c(-c5ccc(NC(=O)OCC(C)C)cc5)cnc34)cc2)CC1
[1]
  IC50: 349 nM
[2]
  IC50: 1000 nM
[3]
  IC50: 2200 nM
[4]
  IC50: 37 nM

## CC(C)COC(=O)Nc1ccc(-c2cnc3c(-c4cccc(N5CCNCC5)c4)cnn3c2N)cc1
[1]
  IC50: 310 nM
[2]
  IC50: 642 nM
Liver microsomes
  CL: 29 µL/min
[3]
  IC50: 2100 nM
[4]
  IC50: 7 nM
In vitro
  half-life: 48 min

## CN1CCN(c2ccc(-c3cnn4c(N)c(-c5cccc(O)c5)cnc34)cc2)CC1
[1]
  IC50: 8 nM
[2]
  IC50: 2 nM
[3]
  IC50: 96 nM
[4]
  IC50: 8 nM

## CN1CCN(c2ccc(-c3cnn4c(N)c(-c5ccc(NC(=O)Nc6ccccc6Cl)cc5)cnc34)cc2)CC1
[1]
  IC50: 215 nM
[2]
  IC50: > 1000 nM

## CN1CCN(c2cccc(-c3cnn4c(N)c(-c5ccc(NC(=O)c6ccc(C(F)(F)F)cc6)cc5)cnc34)c2)CC1
[1]
  IC50: 295 nM
[2]
  IC50: > 1000 nM
[3]
  IC50: 2300 nM

## CC(C)COC(=O)Nc1ccc(-c2cnc3c(-c4cccc(N5CCN(C)CC5)c4)cnn3c2N)cc1
[1]
  IC50: 594 nM
[2]
  IC50: 1710 nM
Liver microsomes
  CL: 612.5 µL/min
[3]
  IC50: 5350 nM
In vitro
  half-life: 2.3 min

## CN1CCN(c2ccc(-c3cnn4c(N)c(-c5ccc(NC(=O)NCC6CCCCC6)cc5)cnc34)cc2)CC1
[1]
  IC50: 21 nM
[2]
  IC50: 143 nM

## CN1CCN(c2cccc(-c3cnn4c(N)c(-c5ccc(NC(=O)Oc6ccccc6)cc5)cnc34)c2)CC1
[1]
  IC50: 193 nM
[2]
  IC50: 688 nM
[3]
  IC50: 4100 nM

## CN1CCN(c2ccc(-c3cnn4c(N)c(-c5ccc(NC(=O)N(C)C6CCCCC6)cc5)cnc34)cc2)CC1
[1]
  IC50: 178 nM
[2]
  IC50: 497 nM
[3]
  IC50: 435 nM

## Cc1nn2c(N)c(-c3cccc(O)c3)cnc2c1-c1ccc(N2CCN(C)CC2)cc1
[1]
  IC50: > 1000 nM
[2]
  IC50: > 1000 nM
[3]
  IC50: 500 nM
[4]
  IC50: > 1000 nM

## CN1CCN(c2ccc(-c3cnn4c(N)c(-c5ccc(NC(=O)c6ccc(C(F)(F)F)cc6)cc5)cnc34)cc2)CC1
[1]
  IC50: 256 nM
[2]
  IC50: 1000 nM
[3]
  IC50: 8300 nM

## CN1CCN(c2ccc(-c3cnn4c(N)c(-c5ccc(NC(=O)CCC6CCCC6)cc5)cnc34)cc2)CC1
[1]
  IC50: 14 nM
[2]
  IC50: 142 nM
[3]
  IC50: 1020 nM

## CC(C)COC(=O)Nc1ccc(-c2cnc3c(-c4cccc(N5CCN(S(C)(=O)=O)CC5)c4)cnn3c2N)cc1
[1]
  IC50: 676 nM
[2]
  IC50: > 1000 nM
Liver microsomes
  CL: 58.4 µL/min
[3]
  IC50: > 10000 nM
[4]
  IC50: 209 nM
In vitro
  half-life: 23.7 min

## CN1CCN(c2cccc(-c3cnn4c(N)c(-c5ccc(O)cc5)cnc34)c2)CC1
[1]
  IC50: 342 nM
[2]
  IC50: 442 nM
[3]
  IC50: 470 nM
[4]
  IC50: 30 nM

## CN1CCN(c2ccc(-c3cnn4c(N)c(-c5ccc(NC(=O)Oc6ccccc6)cc5)cnc34)cc2)CC1
[1]
  IC50: 88 nM
[2]
  IC50: 394 nM
[3]
  IC50: 1000 nM

## CC(C)COC(=O)Nc1ccc(-c2cnc3c(-c4ccc(N5CCN(C)CC5)cc4)cnn3c2N)cc1
[1]
  IC50: 181 nM
[5]
  clearance: 32.1 mL/min/kg
[6]
  IC50: 4700 nM
[7]
  half-life: 342 min
[2]
  IC50: 662 nM
[8]
  Vd: 6.42 L/kg
Mus musculus [9]
  inhibition in vivo at 30 mg/kg: 21%
[10]
  IC50: > 10000 nM
[11]
  IC50: 3250 nM
Liver microsomes
  CL: 161.2 µL/min
[12]
  IC50: > 10000 nM
[3]
  IC50: 4230 nM
[13]
  IC50: > 10000 nM
[14]
  IC50: 89 nM
Mus musculus [15]
  Activity: Active
[16]
  IC50: > 10000 nM
[17]
  IC50: 107 nM
[4]
  IC50: 22 nM
[18]
  bioavailability: 95%
[19]
  IC50: 40 nM
Mus musculus [20]
  inhibition in vivo at 10 mg/kg: -7%
[21]
  IC50: > 10000 nM
[22]
  IC50: > 10000 nM
[23]
  IC50: > 10000 nM
In vitro
  half-life: 8.6 min
[24]
  IC50: 74 nM
[25]
  IC50: > 10000 nM
Mus musculus [26]
  inhibition in vivo at 100 mg/kg: 57%
Insulin receptor
  IC50: > 10000 nM
[27]
  IC50: > 10000 nM
[28]
  IC50: > 10000 nM
Angiopoietin-1 receptor
  IC50: 1000 nM
[29]
  IC50: > 10000 nM

## CC(C)COC(=O)Nc1ccc(-c2cnc3c(-c4cccc(N5CCN(C(=O)CN)CC5)c4)cnn3c2N)cc1
[1]
  IC50: 270 nM
[2]
  IC50: 762 nM
Liver microsomes
  CL: 11.2 µL/min
[3]
  IC50: 1900 nM
[4]
  IC50: 7 nM
In vitro
  half-life: 124 min

## COc1cc(-c2cnc3c(-c4cccc(N5CCN(C)CC5)c4)cnn3c2N)ccc1NC(=O)OCC(C)C
[1]
  IC50: > 1000 nM
[2]
  IC50: > 1000 nM
[3]
  IC50: 9200 nM
[4]
  IC50: 546 nM

## Cc1nc2c(-c3cccc(N4CCN(C)CC4)c3)cnn2c(N)c1-c1ccc(NC(=O)OCC(C)C)cc1
[1]
  IC50: > 1000 nM
[2]
  IC50: > 1000 nM
[3]
  IC50: > 10000 nM
[4]
  IC50: 116 nM

## CC(C)COC(=O)Nc1ccc(-c2cnc3c(-c4cccc(N5CCOCC5)c4)cnn3c2N)cc1
[1]
  IC50: > 1000 nM
[2]
  IC50: > 1000 nM
[3]
  IC50: 7350 nM
[4]
  IC50: 699 nM

## Cc1cc(NC(=O)OCC(C)C)ccc1-c1cnc2c(-c3cccc(N4CCN(C)CC4)c3)cnn2c1N
[1]
  IC50: 456 nM
[2]
  IC50: 462 nM
[3]
  IC50: 3400 nM
[4]
  IC50: 23 nM

## CN1CCN(c2cccc(-c3cnn4c(N)c(-c5ccc(NC(=O)Nc6ccccc6Cl)cc5)cnc34)c2)CC1
[1]
  IC50: 172 nM
[2]
  IC50: 1000 nM

## CN1CCN(c2cccc(-c3cnn4c(N)c(-c5ccc(NC(=O)CCC6CCCC6)cc5)cnc34)c2)CC1
[1]
  IC50: 37 nM
[2]
  IC50: 135 nM
[3]
  IC50: 690 nM

## CN1CCN(c2cccc(-c3cnn4c(N)c(-c5ccc(NC(=O)NCC6CCCCC6)cc5)cnc34)c2)CC1
[1]
  IC50: 70 nM
[2]
  IC50: 227 nM
[3]
  IC50: 130 nM

## CN1CCN(c2cccc(-c3cnn4c(N)c(-c5ccc(NS(=O)(=O)c6cccc(Cl)c6Cl)cc5)cnc34)c2)CC1
[1]
  IC50: > 1000 nM
[2]
  IC50: > 1000 nM
[3]
  IC50: 5400 nM
[4]
  IC50: 28 nM
